Among the test systems are MDA-MB-435; CAKI-1 renal; NCI-H460 lung; A498 renal; SW-620 colon; SF-539 CNS; DU-145 prostate; LOX IMVI melanoma; SNB-19 CNS; HCC-2998 colon; MDA-MB-231 breast; M14 melanoma.
Common to all, as to assay: NCI anticancer screen, dose series, 48 h

For 7 compounds, TGI results are on record in PubChem BioAssay (NCI).

Each structure is given as a SMILES string.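 Assay format: 96-well plates, 48-hour exposure. TGI marks complete inhibition of growth.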

For `COc1ccc2c(c1)c1c3c(ccc4ncn2c43)N(CCO)CCN=1`, the TGI is 0.834 µM with MDA-MB-435; 2.51 µM in the experiment on CAKI-1 renal; 0.484 µM in the experiment with NCI-H460 lung; 0.382 µM with A498 renal; 3.64 µM with SW-620 colon; 0.347 µM in the experiment on SF-539 CNS. Further, the TGI with DU-145 prostate was found to be 1.59 µM; with LOX IMVI melanoma it was 0.468 µM; with SNB-19 CNS, 1.46 µM; in the experiment on HCC-2998 colon, 0.369 µM; with MDA-MB-231 breast it was 0.511 µM; in the experiment on M14 melanoma, 0.772 µM.

On to `CCOC(=O)C(NC(=O)c1cccc(Cl)c1)(Nc1ccc(S(=O)(=O)Nc2cc(C)on2)cc1)C(F)(F)F` (centres undefined), for which the TGI with MDA-MB-435, in the experiment with CAKI-1 renal, in the experiment on NCI-H460 lung, in the experiment on A498 renal, with SW-620 colon and in the experiment on SF-539 CNS was over 100 µM throughout. The TGI in the experiment with DU-145 prostate, in the experiment on LOX IMVI melanoma, with SNB-19 CNS, in the experiment on HCC-2998 colon, in the experiment with MDA-MB-231 breast and with M14 melanoma was over 100 µM each time.

For `COC(=O)c1cc2c(c(C(=O)OC)c1)CCC2`, the TGI in the experiment with MDA-MB-435, with CAKI-1 renal, in the experiment with NCI-H460 lung, with A498 renal, with SW-620 colon and in the experiment on SF-539 CNS was over 100 µM each time. For the same compound, the TGI in the experiment on DU-145 prostate, in the experiment with LOX IMVI melanoma, with SNB-19 CNS, in the experiment with HCC-2998 colon, with MDA-MB-231 breast and in the experiment on M14 melanoma was over 100 µM each time.

With `COC(=O)C(CNC(=O)/C=C/c1ccc(OC)c(OC)c1)NC(=O)/C=C/c1ccc(OC)c(OC)c1` (centres undefined), the TGI in the experiment on MDA-MB-435, in the experiment on CAKI-1 renal, with NCI-H460 lung, in the experiment with A498 renal, with SW-620 colon and in the experiment with SF-539 CNS was over 100 µM each time. The TGI with DU-145 prostate, in the experiment with LOX IMVI melanoma, in the experiment with SNB-19 CNS, in the experiment on HCC-2998 colon, in the experiment on MDA-MB-231 breast and in the experiment with M14 melanoma was over 100 µM in each case.

Take `Cn1c(-c2ccco2)ccc1-c1ccc(C=O)o1`: the TGI in the experiment on MDA-MB-435 is over 100 µM; in the experiment with CAKI-1 renal, 55.2 µM; in the experiment with NCI-H460 lung, over 100 µM; with A498 renal it was over 100 µM; in the experiment on SW-620 colon, over 100 µM; in the experiment on SF-539 CNS, 48.8 µM. The TGI in the experiment with DU-145 prostate, in the experiment with LOX IMVI melanoma, with SNB-19 CNS, in the experiment on HCC-2998 colon, with MDA-MB-231 breast and with M14 melanoma was over 100 µM each time.

For the compound `COc1ccc(C2SCC(=O)N2c2ccc(-n3c(-c4ccccc4)nc4ccccc4c3=O)cc2)cc1` (centres undefined), the TGI in the experiment on MDA-MB-435, in the experiment with CAKI-1 renal, in the experiment with NCI-H460 lung, in the experiment on A498 renal, in the experiment with SW-620 colon and in the experiment on SF-539 CNS was over 100 µM throughout. Moreover, the TGI with DU-145 prostate, in the experiment on LOX IMVI melanoma, with SNB-19 CNS, in the experiment with HCC-2998 colon, in the experiment on MDA-MB-231 breast and in the experiment with M14 melanoma was over 100 µM throughout.

Consider `Nc1ncnc2c1ncn2[C@H]1C=C[C@@H](NO)C1`, for which the TGI with MDA-MB-435, with CAKI-1 renal, in the experiment on NCI-H460 lung, in the experiment on A498 renal, with SW-620 colon and in the experiment on SF-539 CNS was over 100 µM in each case. Moreover, the TGI in the experiment on DU-145 prostate, in the experiment on LOX IMVI melanoma, in the experiment with SNB-19 CNS, in the experiment on HCC-2998 colon, in the experiment on MDA-MB-231 breast and in the experiment on M14 melanoma was over 100 µM throughout.
